Experimental data taken from ChEMBL document CHEMBL1143229, “PB183, a sigma receptor ligand, as a potential PET probe for the imaging of prostate adenocarcinoma” (Bioorg Med Chem Lett, 2008).

Assays:
[1] = Apparent permeability from apical to basolateral side of human Caco-2 cell membrane at pH 7.4 after 21 days; format: ADME, cell-based; details: Caco-2, pH 7.4
[2] = Antiproliferative activity against mouse TRAMP cells; format: functional, cell-based
[3] = molecular target: Sigma non-opioid intracellular receptor 1 (Mus musculus, UniProt O55242); assay: Displacement of (+)-[3H]pentazocine from mouse sigma 1 receptor in TRAMP cell membrane; format: cell membranes
Sequence of Sigma non-opioid intracellular receptor 1 (O55242 whole entry): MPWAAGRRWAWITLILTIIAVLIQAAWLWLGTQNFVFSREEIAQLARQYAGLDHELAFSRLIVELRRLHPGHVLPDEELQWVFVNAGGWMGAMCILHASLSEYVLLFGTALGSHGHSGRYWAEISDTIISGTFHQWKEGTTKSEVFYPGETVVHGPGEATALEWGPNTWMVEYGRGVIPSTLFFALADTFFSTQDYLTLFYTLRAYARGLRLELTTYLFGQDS

[4] = Displacement of [3H]DTG from mouse sigma-2 receptor in TRAMP cell membrane; format: cell membranes
[5] = Cytotoxicity against mouse TRAMP cells; format: functional, cell-based
[6] = Selectivity for sigma 2 receptor over sigma 1 receptor

Row | Structure (SMILES) | Papp A→B [1] [×10⁻⁶ cm/s] | EC50 [2] [µM] | Ki [3] [µM] | Ki [4] [µM] | EC50 [5] [µM] | Selectivity ratio [6]
1 | COc1cccc2c(CCCN3CCN(C4CCCCC4)CC3)cccc12 | 6.3 | 16.9 | 0.0065 | 0.0005 | 26.6 | 
2 | COc1cccc2c1CCCC2CCCN1CCN(C2CCCCC2)CC1 (stereo unspecified) |  |  |  |  |  | 40
